Measurements as given in ChEMBL document CHEMBL1150928, “A new antitubercular mulinane diterpenoid from Azorella madreporica Clos” (J Nat Prod, 1998).
In brackets after ≈: the same amount, converted by molar mass.

Key:
[1] = system: Mycobacterium tuberculosis; assay: Antitubercular activity against Mycobacterium tuberculosis H37Rv ATCC 27294; format: functional
Vero = assay: Cytotoxicity against african green monkey Vero cells; format: cell-based; details: Chlorocebus sabaeus

CC(C)[C@H]1CC[C@@H]2[C@]1(C)CC[C@@]1(C)CC[C@@](C)(O)[C@@H]3C[C@@]231
MIC [1]: 20 µg/mL (≈ 68.8 µM) | IC50 (Vero): 184 µg/mL (≈ 633 µM)

CO[C@H]1/C=C/O[C@@]2(C)Oc3c(C)c(O)c4c(O)c(c(/C=N/N5CCN(C)CC5)c(O)c4c3C2=O)NC(=O)/C(C)=C\C=C\[C@H](C)[C@H](O)[C@@H](C)[C@@H](O)[C@@H](C)[C@H](OC(C)=O)[C@@H]1C [RIFAMPIN]
IC50 (Vero): > 158 µg/mL
